Measured values taken from ChEMBL document CHEMBL1201862, “PubChem BioAssay data set” (2004).
Active and inactive are the calls of the source.

Columns and labels:
Troponin, cardiac muscle = Troponin, cardiac muscle (Homo sapiens, UniProt P19429+P45379+P63316); experiment: Fluorescence-based biochemical high throughput dose response assay for activators of the calcium sensitivity of cardiac Regulated Thin Filaments (RTF). [Related pubchem assays (depositor defined):AID493008, AID493018, AID504382, AID504383]; type: protein-complex assay
[1] = target: T1, Polyadenylate-binding protein 1 (Homo sapiens, UniProt P11940); experiment: MLLE binding blockers, Cy5 peptide tracer – biochemical, fluorescence polarization, Cy5-PAM2 peptide, secondary, miRNA deadenylation inhibitor project, dose response (AID 602260); type: functional; conditions: read-out: IC50_Mean
14-3-3 protein gamma = 14-3-3 protein gamma (Homo sapiens, UniProt P61981); experiment: modulators of 14-3-3 gamma client binding – dose response (AID 711); type: functional
[2] = target: Female germline-specific tumor suppressor gld-1 (Caenorhabditis elegans, UniProt Q17339); experiment: blockers of GLD-1/TGE RNA complex formation – biochemical, fluorescence polarization, C. elegans, dose response (AID 2802);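 also: fluorescence polarization of labeled TGE RNA bound by purified gld-1 protein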
[3] = target: T1, Polyadenylate-binding protein 1; experiment: MLLE domain peptide-binding blockers, IC50 – biochemical, fluorescence polarization, FITC-PAM2 peptide, dose response (AID 602259); type: functional; conditions: read-out: IC50_Mean
[4] = target: T2, RNA-binding protein pos-1 (Caenorhabditis elegans, UniProt G5EF15); experiment: disruptors of C. elegans POS-1 RNA interaction – biochemical, fluorescence polarization, dose response (AID 1964);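 also: purified POS-1 fused to maltose binding protein made in E. coli; potency of compounds blocking POS-1 binding to fluorescent RNA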
T2 sequence (G5EF15 whole entry): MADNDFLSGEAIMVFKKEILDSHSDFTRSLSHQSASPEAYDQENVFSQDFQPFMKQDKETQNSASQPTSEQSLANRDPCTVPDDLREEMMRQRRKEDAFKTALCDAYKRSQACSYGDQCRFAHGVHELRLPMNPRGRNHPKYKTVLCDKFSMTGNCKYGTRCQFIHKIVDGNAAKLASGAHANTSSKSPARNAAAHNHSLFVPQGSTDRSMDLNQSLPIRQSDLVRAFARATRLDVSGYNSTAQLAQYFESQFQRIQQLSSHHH

Protein Rev = Protein Rev (Human immunodeficiency virus type 1 group M subtype B (isolate HXB2)(HIV-1), UniProt P04618); experiment: blockers of HIV Rev/RRE RNA complex – biochemical, fluorescence polarization, HIV-1, dose response (AID 434976); parameters: species or system Human immunodeficiency virus 1
Protein skinhead-1 = target: T3, Protein skinhead-1 (Caenorhabditis elegans, UniProt P34707); type: functional
T3 sequence (P34707 whole entry): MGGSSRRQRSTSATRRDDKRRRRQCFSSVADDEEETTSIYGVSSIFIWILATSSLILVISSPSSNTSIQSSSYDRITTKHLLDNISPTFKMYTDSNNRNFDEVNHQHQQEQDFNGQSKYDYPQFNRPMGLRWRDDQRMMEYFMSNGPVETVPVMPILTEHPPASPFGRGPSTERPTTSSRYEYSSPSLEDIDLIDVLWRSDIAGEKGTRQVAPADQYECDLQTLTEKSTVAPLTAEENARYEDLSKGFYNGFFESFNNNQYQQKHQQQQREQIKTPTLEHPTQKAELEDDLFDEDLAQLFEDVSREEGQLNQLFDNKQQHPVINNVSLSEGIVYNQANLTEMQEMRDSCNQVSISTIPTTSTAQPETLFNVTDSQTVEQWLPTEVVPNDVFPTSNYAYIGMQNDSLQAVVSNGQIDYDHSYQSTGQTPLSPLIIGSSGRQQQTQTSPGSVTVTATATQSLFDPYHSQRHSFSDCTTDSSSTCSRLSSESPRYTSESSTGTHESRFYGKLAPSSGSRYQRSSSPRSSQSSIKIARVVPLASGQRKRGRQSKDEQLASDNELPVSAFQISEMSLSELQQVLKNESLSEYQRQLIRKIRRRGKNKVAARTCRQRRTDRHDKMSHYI

[5] = target: T4, Zinc finger protein mex-5 (Caenorhabditis elegans, UniProt Q9XUB2); experiment: potency of MEX-5 RNA-binding blockers – biochemical, C. elegans, fluorescence polarization, dose response (AID 1960)
T4 sequence (Q9XUB2 whole entry): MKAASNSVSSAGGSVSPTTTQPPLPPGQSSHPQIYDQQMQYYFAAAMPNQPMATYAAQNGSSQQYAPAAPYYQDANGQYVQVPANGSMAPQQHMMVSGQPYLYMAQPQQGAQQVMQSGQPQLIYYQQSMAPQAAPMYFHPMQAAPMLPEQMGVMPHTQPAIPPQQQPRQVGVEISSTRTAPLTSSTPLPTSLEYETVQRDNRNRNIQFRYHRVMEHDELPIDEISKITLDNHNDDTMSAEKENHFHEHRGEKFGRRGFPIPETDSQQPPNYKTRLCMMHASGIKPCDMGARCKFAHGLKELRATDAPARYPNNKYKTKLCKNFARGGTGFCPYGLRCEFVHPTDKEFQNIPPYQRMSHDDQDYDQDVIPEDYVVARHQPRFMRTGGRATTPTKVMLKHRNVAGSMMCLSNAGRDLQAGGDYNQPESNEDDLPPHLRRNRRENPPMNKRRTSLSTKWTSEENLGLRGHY

[6] = target: C-C chemokine receptor type 6 (Homo sapiens, UniProt P51684); experiment: antagonism of CCR6 beta-arrestin recruitment – cell-based, luminescent beta-arrestin readout, dose response (AID 504728); type: functional
Beta-galactosidase = Beta-galactosidase (Escherichia coli, UniProt Q8VNN2); experiment: detection-enzyme interference by beta-gal modulators – biochemical, E. coli enzyme, set 3, artefact control for CCR6 antagonist project, dose response (AID 504712); type: functional
[7] = target: T5, E3 ubiquitin-protein ligase XIAP (Homo sapiens, UniProt P98170); experiment: small molecules displacing peptide from XIAP – biochemical, IAP family, fluorescence polarization (AID 1018); type: functional
[8] = target: T5, E3 ubiquitin-protein ligase XIAP; experiment: Counter Screen using XIAP-Bir3 for Chemical Antagonists of Bir1/2 domains of IAP-family anti-apoptotic proteins. [Related pubchem assays (depositor defined):AID1018, AID1449, AID1514, AID1638, AID1749, AID1750, AID488957, AID488963]
SUMO-activating enzyme [9] = target: T6, SUMO-activating enzyme (Homo sapiens, UniProt Q9UBT2); experiment: blockers of UBC9-mediated SUMO conjugation – biochemical, AlphaScreen, SUMOylation inhibitor project, confirmation (AID 2018); type: functional
SUMO-activating enzyme [10] = target: T6, SUMO-activating enzyme; experiment: blockers of SAE1/SAE2–UBC9 SUMO transfer – biochemical, HTRF, uHTS, primary screen (AID 2006); type: protein-complex assay
[11] = target: T7, Mannose-6-phosphate isomerase (Homo sapiens, UniProt P34949); experiment: MPI inhibition at elevated mannose 6-phosphate – biochemical, fluorescence intensity, high mannose 6-phosphate, primary screen (AID 1220)
T7 sequence (P34949 whole entry): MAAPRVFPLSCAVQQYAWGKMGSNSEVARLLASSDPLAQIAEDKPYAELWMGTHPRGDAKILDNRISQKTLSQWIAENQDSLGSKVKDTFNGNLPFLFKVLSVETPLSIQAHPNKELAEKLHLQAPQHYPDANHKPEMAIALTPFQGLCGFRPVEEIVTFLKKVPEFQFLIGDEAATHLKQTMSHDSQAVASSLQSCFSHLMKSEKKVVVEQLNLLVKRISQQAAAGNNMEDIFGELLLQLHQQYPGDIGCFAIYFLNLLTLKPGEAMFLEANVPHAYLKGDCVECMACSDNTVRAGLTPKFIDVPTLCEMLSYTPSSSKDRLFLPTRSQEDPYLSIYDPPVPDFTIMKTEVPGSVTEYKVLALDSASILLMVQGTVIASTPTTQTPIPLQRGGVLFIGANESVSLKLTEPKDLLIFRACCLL

[12] = target: DNA dC->dU-editing enzyme APOBEC-3G (Homo sapiens, UniProt Q9HC16); experiment: Dose Response confirmation of small molecule APOBEC3G DNA Deaminase Inhibitors via a fluorescence-based single-stranded DNA deaminase assay. [Related pubchem assays (depositor defined):AID493012, AID493028]; type: functional
[13] = target: Alkaline phosphatase, placental type (Homo sapiens, UniProt P05187); experiment: human placental alkaline phosphatase inhibition – biochemical, luminescence, confirmation (AID 1512); type: functional
[14] = target: T8, Alkaline phosphatase, tissue-nonspecific isozyme (Homo sapiens, UniProt P05186); experiment: activation of tissue-nonspecific alkaline phosphatase – biochemical, TNAP isozyme, human IAP uHTS hits, selectivity assay for human IAP activator project, dose response (AID 488886); type: functional;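 also: potency of compounds raising TNAP activity as a selectivity check on IAP activators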
T8 sequence (P05186 whole entry): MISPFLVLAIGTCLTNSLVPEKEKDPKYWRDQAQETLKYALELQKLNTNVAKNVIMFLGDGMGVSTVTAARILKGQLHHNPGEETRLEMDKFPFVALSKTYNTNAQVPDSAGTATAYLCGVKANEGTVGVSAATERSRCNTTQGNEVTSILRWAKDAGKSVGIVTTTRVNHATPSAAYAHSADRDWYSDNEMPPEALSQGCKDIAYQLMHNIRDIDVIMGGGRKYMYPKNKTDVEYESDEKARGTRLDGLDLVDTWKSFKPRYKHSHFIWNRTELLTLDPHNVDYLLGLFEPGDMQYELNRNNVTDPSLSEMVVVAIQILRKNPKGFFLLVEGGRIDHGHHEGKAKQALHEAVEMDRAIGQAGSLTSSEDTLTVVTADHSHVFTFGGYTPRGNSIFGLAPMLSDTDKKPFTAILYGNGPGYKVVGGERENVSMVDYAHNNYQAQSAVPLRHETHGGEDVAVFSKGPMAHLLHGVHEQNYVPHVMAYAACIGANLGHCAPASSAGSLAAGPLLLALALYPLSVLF

[15] = target: T9, Intestinal-type alkaline phosphatase (Homo sapiens, UniProt P09923); experiment: activation of human intestinal alkaline phosphatase – biochemical, luminescent, uHTS hits, set 2, dose response (AID 488817); type: functional;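 also: potency of activators that raise enzyme activity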
[16] = target: T10, Intestinal-type alkaline phosphatase (Mus musculus, UniProt P24822); experiment: PubChem AID 488875; type: functional
[17] = target: T9, Intestinal-type alkaline phosphatase; experiment: human intestinal alkaline phosphatase activators, dose response, biochemical, luminescence, uHTS hits (AID 463120); type: functional
[18] = target: T9, Intestinal-type alkaline phosphatase; experiment: inhibition of human intestinal alkaline phosphatase – biochemical, luminescent, uHTS hits, set 2, dose response (AID 488793); type: functional
[19] = target: T9, Intestinal-type alkaline phosphatase; experiment: Dose Response confirmation of uHTS hits from a small molecule inhibitors of human intestinal alkaline phosphatase via a luminescent assay. [Related pubchem assays (depositor defined):AID2544, AID2574]; type: functional
[20] = target: T8, Alkaline phosphatase, tissue-nonspecific isozyme; experiment: TNAP enzyme inhibition by screening hits, dose response, selectivity assay for mouse IAP inhibitor project, biochemical, human TNAP, uHTS hits (AID 488906); type: functional
[21] = target: T9, Intestinal-type alkaline phosphatase; experiment: inhibition of human intestinal alkaline phosphatase – biochemical, dose response (AID 488876); type: functional
[22] = fluconazole-exposed Candida albicans growth modulators – fluorescence, retest, confirmation (AID 2467); type: functional, cell-based
[23] = target: T10, Intestinal-type alkaline phosphatase; experiment: PubChem AID 488785; type: functional
[24] = target: Induced myeloid leukemia cell differentiation protein Mcl-1 (Homo sapiens, UniProt Q07820); type: functional
[25] = NIH-3T3 fibroblast cytotoxicity, dose response, cytotoxicity control, cell-based, fluorescence, Alamar Blue, secondary assay (AID 2327); type: functional;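 also: NIH-3T3 mouse fibroblasts cultured with fluconazole at 8 µg/mL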

T10 sequence (P24822 whole entry): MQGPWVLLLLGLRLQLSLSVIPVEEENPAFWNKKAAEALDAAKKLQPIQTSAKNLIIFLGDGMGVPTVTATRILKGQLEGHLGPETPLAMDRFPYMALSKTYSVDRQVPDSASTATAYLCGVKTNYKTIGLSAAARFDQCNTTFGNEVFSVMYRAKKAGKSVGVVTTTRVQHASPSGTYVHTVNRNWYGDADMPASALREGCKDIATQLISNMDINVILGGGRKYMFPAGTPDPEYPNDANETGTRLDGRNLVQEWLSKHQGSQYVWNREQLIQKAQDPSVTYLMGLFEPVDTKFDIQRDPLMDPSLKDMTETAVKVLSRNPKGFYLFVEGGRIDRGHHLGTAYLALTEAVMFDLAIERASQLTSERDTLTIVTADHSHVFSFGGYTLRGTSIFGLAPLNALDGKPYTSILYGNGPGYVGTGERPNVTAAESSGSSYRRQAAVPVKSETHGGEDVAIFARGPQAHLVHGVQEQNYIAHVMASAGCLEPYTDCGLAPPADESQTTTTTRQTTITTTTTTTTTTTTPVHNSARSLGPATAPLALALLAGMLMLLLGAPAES
T9 sequence (P09923 whole entry): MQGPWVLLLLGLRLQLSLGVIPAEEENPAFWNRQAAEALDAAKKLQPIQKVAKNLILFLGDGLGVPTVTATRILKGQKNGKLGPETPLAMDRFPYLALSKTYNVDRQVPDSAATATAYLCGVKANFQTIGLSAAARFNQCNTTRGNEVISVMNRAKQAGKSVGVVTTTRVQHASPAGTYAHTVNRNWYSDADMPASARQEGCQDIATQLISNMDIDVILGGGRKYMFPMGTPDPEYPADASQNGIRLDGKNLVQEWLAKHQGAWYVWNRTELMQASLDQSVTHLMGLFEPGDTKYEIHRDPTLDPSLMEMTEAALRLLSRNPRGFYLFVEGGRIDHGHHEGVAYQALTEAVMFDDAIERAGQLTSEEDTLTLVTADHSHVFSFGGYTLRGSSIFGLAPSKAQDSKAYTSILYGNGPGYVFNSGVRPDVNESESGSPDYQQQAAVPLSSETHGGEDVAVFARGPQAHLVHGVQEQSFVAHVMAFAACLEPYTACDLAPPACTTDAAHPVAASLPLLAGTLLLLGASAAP
T5 sequence (P98170 whole entry): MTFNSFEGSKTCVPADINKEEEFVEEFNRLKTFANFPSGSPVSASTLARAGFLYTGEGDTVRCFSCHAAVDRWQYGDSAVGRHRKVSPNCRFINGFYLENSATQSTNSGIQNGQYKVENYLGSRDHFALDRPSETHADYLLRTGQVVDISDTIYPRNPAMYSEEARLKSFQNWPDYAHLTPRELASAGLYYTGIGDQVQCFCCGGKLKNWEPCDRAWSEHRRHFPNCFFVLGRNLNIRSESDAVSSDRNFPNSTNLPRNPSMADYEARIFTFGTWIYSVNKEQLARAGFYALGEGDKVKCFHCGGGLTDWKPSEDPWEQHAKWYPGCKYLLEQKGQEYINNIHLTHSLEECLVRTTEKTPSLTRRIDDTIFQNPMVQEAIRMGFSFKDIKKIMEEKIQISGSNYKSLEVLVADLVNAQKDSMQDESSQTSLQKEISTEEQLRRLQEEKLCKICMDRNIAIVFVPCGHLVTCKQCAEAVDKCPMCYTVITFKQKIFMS
T6 sequence (Q9UBE0 whole entry): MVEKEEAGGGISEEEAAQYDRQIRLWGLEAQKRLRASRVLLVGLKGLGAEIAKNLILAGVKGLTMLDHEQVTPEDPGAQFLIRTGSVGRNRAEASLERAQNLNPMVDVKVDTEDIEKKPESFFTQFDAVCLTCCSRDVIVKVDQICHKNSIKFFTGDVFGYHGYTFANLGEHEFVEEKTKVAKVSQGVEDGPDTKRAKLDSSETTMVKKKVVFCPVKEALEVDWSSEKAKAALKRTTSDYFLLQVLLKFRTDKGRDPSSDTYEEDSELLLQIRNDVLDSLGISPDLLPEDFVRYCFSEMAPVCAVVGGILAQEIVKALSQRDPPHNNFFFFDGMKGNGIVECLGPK
T6 sequence (Q9UBT2 whole entry): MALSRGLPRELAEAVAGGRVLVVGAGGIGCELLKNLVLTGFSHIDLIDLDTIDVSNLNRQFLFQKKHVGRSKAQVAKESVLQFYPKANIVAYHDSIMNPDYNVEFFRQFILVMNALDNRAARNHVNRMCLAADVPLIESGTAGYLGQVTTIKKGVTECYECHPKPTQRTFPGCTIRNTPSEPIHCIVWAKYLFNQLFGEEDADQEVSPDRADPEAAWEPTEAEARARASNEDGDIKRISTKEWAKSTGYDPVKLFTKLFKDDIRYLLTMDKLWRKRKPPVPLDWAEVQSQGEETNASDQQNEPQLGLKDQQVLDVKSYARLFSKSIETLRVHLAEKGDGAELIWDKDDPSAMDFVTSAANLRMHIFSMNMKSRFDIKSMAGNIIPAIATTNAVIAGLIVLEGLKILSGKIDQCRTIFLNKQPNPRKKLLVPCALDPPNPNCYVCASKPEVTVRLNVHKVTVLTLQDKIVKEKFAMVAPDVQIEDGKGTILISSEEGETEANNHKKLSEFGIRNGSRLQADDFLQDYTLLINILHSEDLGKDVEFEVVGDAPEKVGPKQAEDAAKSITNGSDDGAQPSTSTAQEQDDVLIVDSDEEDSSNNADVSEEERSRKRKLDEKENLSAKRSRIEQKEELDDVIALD
T1 sequence (P11940 whole entry): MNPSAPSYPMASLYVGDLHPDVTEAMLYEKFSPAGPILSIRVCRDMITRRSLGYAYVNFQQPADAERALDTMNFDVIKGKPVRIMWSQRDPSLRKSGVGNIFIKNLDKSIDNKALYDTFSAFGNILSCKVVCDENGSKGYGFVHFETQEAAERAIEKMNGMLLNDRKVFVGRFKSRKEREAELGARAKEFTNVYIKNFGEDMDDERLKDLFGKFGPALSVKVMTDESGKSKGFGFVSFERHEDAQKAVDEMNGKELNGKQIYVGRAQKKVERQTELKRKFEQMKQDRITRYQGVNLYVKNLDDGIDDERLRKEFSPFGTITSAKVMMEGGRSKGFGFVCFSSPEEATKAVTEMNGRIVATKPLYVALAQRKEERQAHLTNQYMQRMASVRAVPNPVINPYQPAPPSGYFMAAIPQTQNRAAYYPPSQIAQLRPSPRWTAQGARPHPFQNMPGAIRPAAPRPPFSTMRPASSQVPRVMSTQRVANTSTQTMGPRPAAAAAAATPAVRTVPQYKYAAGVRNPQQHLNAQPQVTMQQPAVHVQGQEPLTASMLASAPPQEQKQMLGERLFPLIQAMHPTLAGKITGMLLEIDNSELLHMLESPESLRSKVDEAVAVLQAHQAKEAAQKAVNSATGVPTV
Chain of 14-3-3 protein gamma (P61981 whole entry): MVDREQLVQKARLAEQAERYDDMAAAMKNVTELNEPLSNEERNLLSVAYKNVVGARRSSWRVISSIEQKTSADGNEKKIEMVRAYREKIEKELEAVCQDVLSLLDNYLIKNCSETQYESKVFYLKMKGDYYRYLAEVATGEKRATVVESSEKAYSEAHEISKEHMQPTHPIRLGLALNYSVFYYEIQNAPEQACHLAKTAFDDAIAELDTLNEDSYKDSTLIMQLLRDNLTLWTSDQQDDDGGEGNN
Chain of Alkaline phosphatase, placental type (P05187 whole entry): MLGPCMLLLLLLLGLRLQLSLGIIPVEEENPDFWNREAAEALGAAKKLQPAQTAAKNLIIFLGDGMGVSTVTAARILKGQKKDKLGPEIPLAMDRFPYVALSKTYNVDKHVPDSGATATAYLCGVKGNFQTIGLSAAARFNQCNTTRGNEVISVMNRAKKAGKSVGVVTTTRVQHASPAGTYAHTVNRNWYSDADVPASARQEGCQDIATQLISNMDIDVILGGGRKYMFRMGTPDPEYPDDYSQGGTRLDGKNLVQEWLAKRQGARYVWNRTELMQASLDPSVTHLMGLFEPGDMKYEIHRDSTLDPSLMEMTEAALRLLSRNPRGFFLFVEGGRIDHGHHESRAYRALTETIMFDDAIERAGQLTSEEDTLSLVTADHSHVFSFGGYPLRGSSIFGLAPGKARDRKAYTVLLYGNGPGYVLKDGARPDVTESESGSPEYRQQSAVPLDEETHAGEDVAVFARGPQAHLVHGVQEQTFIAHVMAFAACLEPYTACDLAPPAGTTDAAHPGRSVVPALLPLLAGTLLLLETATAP
Chain of DNA dC->dU-editing enzyme APOBEC-3G (Q9HC16 whole entry): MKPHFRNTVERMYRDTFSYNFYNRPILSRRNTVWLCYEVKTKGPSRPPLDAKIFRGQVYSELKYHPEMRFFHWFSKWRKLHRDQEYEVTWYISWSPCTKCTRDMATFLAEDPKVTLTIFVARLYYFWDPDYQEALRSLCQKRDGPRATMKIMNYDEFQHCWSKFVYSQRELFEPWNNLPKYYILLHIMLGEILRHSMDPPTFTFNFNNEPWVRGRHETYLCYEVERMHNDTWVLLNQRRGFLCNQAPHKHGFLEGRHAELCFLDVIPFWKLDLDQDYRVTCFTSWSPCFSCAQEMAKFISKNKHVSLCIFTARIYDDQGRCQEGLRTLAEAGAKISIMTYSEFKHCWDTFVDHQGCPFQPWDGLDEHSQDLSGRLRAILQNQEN
Chain of C-C chemokine receptor type 6 (P51684 whole entry): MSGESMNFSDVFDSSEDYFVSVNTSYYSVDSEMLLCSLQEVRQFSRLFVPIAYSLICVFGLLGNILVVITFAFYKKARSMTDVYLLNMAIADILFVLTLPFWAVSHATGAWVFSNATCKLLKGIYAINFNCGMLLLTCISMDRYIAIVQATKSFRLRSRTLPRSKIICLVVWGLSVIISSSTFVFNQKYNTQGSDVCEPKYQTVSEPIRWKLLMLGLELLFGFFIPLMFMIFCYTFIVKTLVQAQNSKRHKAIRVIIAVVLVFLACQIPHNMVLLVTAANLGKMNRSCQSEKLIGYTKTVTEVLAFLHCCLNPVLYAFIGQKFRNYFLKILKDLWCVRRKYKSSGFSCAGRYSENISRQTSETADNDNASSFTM
Chain of Protein Rev (P04618 whole entry): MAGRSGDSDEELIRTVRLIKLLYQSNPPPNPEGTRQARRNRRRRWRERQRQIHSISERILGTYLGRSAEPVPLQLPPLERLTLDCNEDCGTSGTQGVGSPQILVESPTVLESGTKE

COc1cc(-c2c(-c3ccc4c(c3)OCO4)noc2C)ccc1F
EC50 (Troponin, cardiac muscle): > 71.4 µM (inactive)

COc1ccc(-c2nc(C[S+]([O-])CC(=O)NCc3ccccn3)c(C)o2)cc1 (configuration not stated)
IC50 [1]: > 66 µM (inactive) | IC50 (14-3-3 protein gamma): 10.7 µM (active) | IC50 [2]: 5 µM (active) | IC50 [3]: 29.4 µM (inactive) | EC50 [4]: 55.4 µM (active) | IC50 (Protein Rev): 19.4 µM (not active) | IC50 (Protein skinhead-1): > 100 µM (inactive) | EC50 [5]: 30.5 µM (active)

CC1C(c2ccccc2)N(C)C(c2ccccc2)C(C)C1(O)C#Cc1ccccc1 (configuration not stated)
IC50 [6]: > 66.6 µM (inactive) | IC50 (Beta-galactosidase): > 66.6 µM (inactive)

CCc1ccc(NC(=O)N2CCN(c3ccc(F)cc3)CC2)cc1
IC50 [7]: > 100 µM (not active) | IC50 [8]: > 100 µM (inactive)

Cc1ccc(-c2nc3ccccc3c(=O)n2CCN2CCOCC2)cc1
IC50 [7]: > 100 µM (not active) | IC50 [8]: > 100 µM (inactive)

O=C(O)CN1C(=O)/C(=C/c2ccc(SCc3ccccc3)o2)SC1=S
IC50 (SUMO-activating enzyme [9]): 4.13 µM (active) | IC50 (SUMO-activating enzyme [10]): 15.5 µM (active) | IC50 [11]: > 50 µM (not active)

CC(=O)NC(=S)NNC(=O)C(c1ccccc1)c1ccccc1
IC50 [12]: 35.1 µM (active) | IC50 [13]: > 100 µM (inactive)

CC(=O)Nc1cccc(C(=O)NNC(=O)c2nnc(O)c3ccccc23)c1
EC50 [14]: 11 µM (active) | EC50 [15]: 12.3 µM (active) | EC50 [16]: > 100 µM (inactive) | EC50 [17]: 6.37 µM (active)

Cc1[nH]n(-c2nc(-c3ccccc3)cc(=O)[nH]2)c(=O)c1CCO
EC50 [14]: 30.7 µM (active) | IC50 [18]: 2.36 µM (active) | EC50 [16]: > 100 µM (inactive) | IC50 [19]: 2.82 µM (active)

Cc1ccc(/C=C2\SC(=S)N(/N=C/c3cc([N+](=O)[O-])ccc3O)C2=O)o1
IC50 [20]: > 100 µM (inactive) | IC50 (SUMO-activating enzyme [9]): 0.35 µM (active) | IC50 (SUMO-activating enzyme [10]): 4.54 µM (active) | IC50 [21]: 80 µM (active) | EC50 [22]: 27.8 µM (active) | IC50 [23]: 61.9 µM (active) | IC50 [24]: 1.53 µM (active) | EC50 [25]: > 150 µM (inactive)

NC(=O)C1CCN(C(=O)c2ccc(-c3ccccc3)cc2)CC1
EC50 (Troponin, cardiac muscle): > 71.5 µM (inactive)
